Laboratory results taken from patent publication US6737383B1, “Herbicidal oxadiazolidines” (priority 1999, dated 2004).

What was measured:
[1] = system: chickweed; assay: Test E chickweed; assay type: in vivo, Stellaria media; settings: Postemergence
Summary of the method: (§1)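 Each compound, carried in a non-phytotoxic solvent blend including surfactant, was applied (postemergence: over the top of young plants at 1- to 4-leaf stage). Plants stayed in the greenhouse about 21 to 28 days before visual comparison with untreated controls.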

[2] = system: rape; assay: Test E rape; assay type: in vivo, Brassica napus; settings: Preemergence
[3] = system: wild mustard; assay: Test E wild mustard; assay type: in vivo, Sinapis arvensis; settings: Postemergence
Protocol: (§2) […] A mixture of sandy loam soil and greenhouse potting mix in a 60:40 ratio was used for the postemergence test.
(§3) Plantings of these crops and weed species were adjusted to produce plants of appropriate size for the postemergence test. All plant species were grown using normal greenhouse practices. Crop and weed species include annual bluegrass (Poa annua), blackgrass (Alopecurus myosuroides), black nightshade (Solanum nigra), chickweed (Stellaria media), common poppy (Papaver rhoeas), deadnettle (Lamium amplexicaule), downy brome (Bromus tectorum), field violet (Viola arvensis), galium (Galium aparine), green foxtail (Setaria viridis), Italian ryegrass (Lolium multiflorum), jointed goatgrass (Aegilops cylindrica), kochia (Kochia scoparia), lambsquarters (Chenopodium album), littleseed canarygrass (Phalaris minor), rape (Brassica napus), redroot pigweed (Amaranthus retroflexus), Russian thistle (Salsola kali), scentless chamomile (Matricaria inodora), spring barley (Hordeum vulgare), sugar beet (Beta vulgaris), sunflower (Helianthus annuus), ivyleaf speedwell (Veronica hederaefolia), spring wheat (Triticum aestivum), winter wheat (Triticum aestivum), wild buckwheat (Polygonum convolvulus), wild mustard (Sinapis arvensis), wild oat (Avena fatua), windgrass (Apera spica-venti) and winter barley (Hordeum vulgare).
(§4) Treated plants and untreated controls were maintained in a greenhouse for approximately 21 to 28 days, after which all treated plants were compared to untreated controls and visually evaluated. […] A dash response (-) means no test result.

[4] = system: blackgrass; assay: Test E blackgrass; assay type: in vivo, Alopecurus myosuroides; settings: Postemergence
Protocol: (§5) Compounds evaluated in this test were formulated in a non-phytotoxic solvent mixture which included a surfactant and applied to plants that were in the 1- to 4-leaf stage (postemergence application). A mixture of sandy loam soil and greenhouse potting mix in a 60:40 ratio was used for the postemergence test.
as §3, §4

[5] = system: redroot pigweed; assay: Test E redroot pigweed; assay type: in vivo, Amaranthus retroflexus; settings: Postemergence
Summary of the method: as §1

[6] = system: downy brome; assay: Test E downy brome; assay type: in vivo, Bromus tectorum; settings: Preemergence
[7] = system: field violet; assay: Test E field violet; assay type: in vivo, Viola arvensis; settings: Postemergence
Summary of the method: as §1

[8] = system: deadnettle; assay: Test E deadnettle; assay type: in vivo, Lamium amplexicaule; settings: Postemergence
Protocol: as §5, §3, §4

[9] = system: Russian thistle; assay: Test E Russian thistle; assay type: in vivo, Salsola kali; settings: Preemergence
[10] = system: lambsquarters; assay: Test E lambsquarters; assay type: in vivo, Chenopodium album; settings: Postemergence
Summary of the method: as §1

[11] = system: sugar beet; assay: Test E sugar beet; assay type: in vivo, Beta vulgaris; settings: Preemergence
[12] = system: chickweed; assay: Test E chickweed; assay type: in vivo, Stellaria media; settings: Preemergence
[13] = system: Italian ryegrass; assay: Test E Italian ryegrass; assay type: in vivo, Lolium multiflorum; settings: Postemergence
Summary of the method: as §1

[14] = system: galium; assay: Test E galium; assay type: in vivo, Galium aparine; settings: Preemergence
[15] = system: rape; assay: Test E rape; assay type: in vivo, Brassica napus; settings: Postemergence
Protocol: as §2, §3, §4

[16] = system: black nightshade; assay: Test E black nightshade; assay type: in vivo, Solanum nigra; settings: Preemergence
[17] = system: wild mustard; assay: Test E wild mustard; assay type: in vivo, Sinapis arvensis; settings: Preemergence
[18] = system: downy brome; assay: Test E downy brome; assay type: in vivo, Bromus tectorum; settings: Postemergence; for Plant response rating, Downy brome: 0 to 100 scale; for Plant response rating, Downy brortie: Rate 250 g/ha, 0 to 100 scale (0 no effect, 100 complete control)
Summary of the method: as §1

[19] = system: kochia; assay: Test E kochia; assay type: in vivo, Kochia scoparia; settings: Postemergence
Summary of the method: as §1

[20] = system: Russian thistle; assay: Test E Russian thistle; assay type: in vivo, Salsola kali; settings: Postemergence
Protocol: as §2, §3, §4

[21] = system: windgrass; assay: Test E windgrass; assay type: in vivo, Apera spica-venti; settings: Postemergence, Rate 62 g/ha; 0 to 100 scale
Protocol: as §5
Plantings of these crops and weed species were adjusted to produce plants of appropriate size for the postemergence test. All plant species were grown using normal greenhouse practices. […]
Treated plants and untreated controls were maintained in a greenhouse for approximately 21 to 28 days, after which all treated plants were compared to untreated controls and visually evaluated. […]

[22] = system: windgrass; assay: Test E windgrass; assay type: in vivo, Apera spica-venti; settings: Preemergence
[23] = Rate 250 g/ha, 0 to 100 scale (0 no effect, 100 complete control)
[24] = Rate 62 g/ha, 0 to 100 scale, 0 no effect, 100 complete control
[25] = Rate 125 g/ha, 0 to 100 scale (0 no effect, 100 complete control)

C=CCn1c(=O)on(C(=O)N(c2ccccc2)C(C)C)c1=O [Compound 93]
Plant response rating, Chickweed ([1]; Rate 62 g/ha, 0 to 100 scale): 0
Plant response rating, Chickweed ([1]; Rate 125 g/ha, 0 to 100 scale): 0
Plant response rating, Chickweed [1, 23]: 0
Plant response rating, Rape [2, 24]: 0
Plant response rating, Rape [2, 25]: 0
Plant response rating, Rape ([2]; Rate 250 g/ha, 0 to 100 scale): 10
Plant response rating, Wild mustard ([3]; Rate 62 g/ha, 0 to 100 scale): 0
Plant response rating, Wild mustard ([3]; Rate 125 g/ha, 0 to 100 scale): 0
Plant response rating, Wild mustard [3, 23]: 10
Plant response rating, Blackgrass ([4]; Rate 62 g/ha, 0 to 100 scale): 10
Plant response rating, Blackgrass ([4]; Rate 125 g/ha, 0 to 100 scale): 30
Plant response rating, Blackgrass [4, 23]: 40
Plant response rating, Redroot pigweed ([5]; Rate 62 g/ha, 0 to 100 scale): 0
Plant response rating, Redroot pigweed ([5]; Rate 125 g/ha, 0 to 100 scale): 0
Plant response rating, Redroot pigweed [5, 23]: 0
Plant response rating, Downy brome [6, 24]: 40
Plant response rating, Downy brome [6, 25]: 60
Plant response rating, Downy brome ([6]; Rate 250 g/ha, 0 to 100 scale): 20
Plant response rating, Field violet ([7]; Rate 62 g/ha, 0 to 100 scale): 0
Plant response rating, Field violet ([7]; Rate 125 g/ha, 0 to 100 scale): 0
Plant response rating, Field violet [7, 23]: 0
Plant response rating, Deadnettle ([8]; Rate 62 g/ha, 0 to 100 scale): 0
Plant response rating, Deadnettle ([8]; Rate 125 g/ha, 0 to 100 scale): 0
Plant response rating, Deadnettle [8, 23]: 0
Plant response rating, Russian thistle [9, 24]: 0
Plant response rating, Russian thistle [9, 25]: 0
Plant response rating, Russian thistle ([9]; Rate 250 g/ha, 0 to 100 scale): 0
Plant response rating, Lambsquarters ([10]; Rate 62 g/ha, 0 to 100 scale): 0
Plant response rating, Lambsquarters ([10]; Rate 125 g/ha, 0 to 100 scale): 0
Plant response rating, Lambsquarters [10, 23]: 0
Plant response rating, Sugar beet [11, 24]: 0
Plant response rating, Sugar beet [11, 25]: 10
Plant response rating, Sugar beet ([11]; Rate 250 g/ha, 0 to 100 scale): 5
Plant response rating, Chickweed [12, 24]: 60
Plant response rating, Chickweed [12, 25]: 20
Plant response rating, Chickweed ([12]; Rate 250 g/ha, 0 to 100 scale): 100
Plant response rating, I. Ryegrass ([13]; Rate 62 g/ha, 0 to 100 scale): 0
Plant response rating, I. Ryegrass ([13]; Rate 125 g/ha, 0 to 100 scale): 0
Plant response rating, I. Ryegrass [13, 23]: 0
Plant response rating, Galium [14, 24]: 10
Plant response rating, Galium [14, 25]: 15
Plant response rating, Galium ([14]; Rate 250 g/ha, 0 to 100 scale): 100
Plant response rating, Rape ([15]; Rate 62 g/ha, 0 to 100 scale): 0
Plant response rating, Rape ([15]; Rate 125 g/ha, 0 to 100 scale): 0
Plant response rating, Rape [15, 23]: 0
Plant response rating, Blk nightshade [16, 24]: 60
Plant response rating, Blk nightshade [16, 25]: 65
Plant response rating, Blk nightshade ([16]; Rate 250 g/ha, 0 to 100 scale): 80
Plant response rating, Wild mustard [17, 24]: 30
Plant response rating, Wild mustard [17, 25]: 65
Plant response rating, Wild mustard ([17]; Rate 250 g/ha, 0 to 100 scale): 80
Plant response rating, Downy brome ([18]; Rate 62 g/ha): 0
Plant response rating, Downy brome ([18]; Rate 125 g/ha): 0
Plant response rating, Downy brortie [18]: 0
Plant response rating, Kochia ([19]; Rate 62 g/ha, 0 to 100 scale): 0
Plant response rating, Kochia ([19]; Rate 125 g/ha, 0 to 100 scale): 0
Plant response rating, Kochia [19, 23]: 0
Plant response rating, Russian thistle ([20]; Rate 62 g/ha, 0 to 100 scale): 0
Plant response rating, Russian thistle ([20]; Rate 125 g/ha, 0 to 100 scale): 0
Plant response rating, Russian thistle [20, 23]: 0
Plant response rating, Windgrass [21]: 60
Plant response rating, Windgrass [22, 24]: 100
Plant response rating, Windgrass [22, 25]: 100

CCn1c(=O)on(C(=O)N(c2ccc(Cl)cc2)C(C)C)c1=O [Compound 108]
Plant response rating, Chickweed ([1]; Rate 62 g/ha, 0 to 100 scale): 10
Plant response rating, Chickweed ([1]; Rate 125 g/ha, 0 to 100 scale): 0
Plant response rating, Chickweed [1, 23]: 0
Plant response rating, Rape [2, 24]: 40
Plant response rating, Rape [2, 25]: 60
Plant response rating, Rape ([2]; Rate 250 g/ha, 0 to 100 scale): 50
Plant response rating, Wild mustard ([3]; Rate 62 g/ha, 0 to 100 scale): 5
Plant response rating, Wild mustard ([3]; Rate 125 g/ha, 0 to 100 scale): 10
Plant response rating, Wild mustard [3, 23]: 80
Plant response rating, Blackgrass ([4]; Rate 62 g/ha, 0 to 100 scale): 5
Plant response rating, Blackgrass ([4]; Rate 125 g/ha, 0 to 100 scale): 5
Plant response rating, Blackgrass [4, 23]: 10
Plant response rating, Redroot pigweed ([5]; Rate 62 g/ha, 0 to 100 scale): 5
Plant response rating, Redroot pigweed ([5]; Rate 125 g/ha, 0 to 100 scale): 20
Plant response rating, Redroot pigweed [5, 23]: 30
Plant response rating, Downy brome [6, 24]: 30
Plant response rating, Downy brome [6, 25]: 30
Plant response rating, Downy brome ([6]; Rate 250 g/ha, 0 to 100 scale): 70
Plant response rating, Field violet ([7]; Rate 62 g/ha, 0 to 100 scale): 0
Plant response rating, Field violet ([7]; Rate 125 g/ha, 0 to 100 scale): 0
Plant response rating, Field violet [7, 23]: 20
Plant response rating, Deadnettle ([8]; Rate 62 g/ha, 0 to 100 scale): 10
Plant response rating, Deadnettle ([8]; Rate 125 g/ha, 0 to 100 scale): 20
Plant response rating, Deadnettle [8, 23]: 30
Plant response rating, Russian thistle [9, 24]: 0
Plant response rating, Russian thistle [9, 25]: 0
Plant response rating, Russian thistle ([9]; Rate 250 g/ha, 0 to 100 scale): 15
Plant response rating, Lambsquarters ([10]; Rate 62 g/ha, 0 to 100 scale): 10
Plant response rating, Lambsquarters ([10]; Rate 125 g/ha, 0 to 100 scale): 20
Plant response rating, Lambsquarters [10, 23]: 20
Plant response rating, Sugar beet [11, 24]: 60
Plant response rating, Sugar beet [11, 25]: 40
Plant response rating, Sugar beet ([11]; Rate 250 g/ha, 0 to 100 scale): 60
Plant response rating, Chickweed [12, 24]: 30
Plant response rating, Chickweed [12, 25]: 40
Plant response rating, Chickweed ([12]; Rate 250 g/ha, 0 to 100 scale): 30
Plant response rating, I. Ryegrass ([13]; Rate 62 g/ha, 0 to 100 scale): 20
Plant response rating, I. Ryegrass ([13]; Rate 125 g/ha, 0 to 100 scale): 5
Plant response rating, I. Ryegrass [13, 23]: 40
Plant response rating, Galium [14, 24]: 95
Plant response rating, Galium [14, 25]: 50
Plant response rating, Galium ([14]; Rate 250 g/ha, 0 to 100 scale): 95
Plant response rating, Rape ([15]; Rate 62 g/ha, 0 to 100 scale): 60
Plant response rating, Rape ([15]; Rate 125 g/ha, 0 to 100 scale): 40
Plant response rating, Rape [15, 23]: 50
Plant response rating, Blk nightshade [16, 24]: 50
Plant response rating, Blk nightshade [16, 25]: 85
Plant response rating, Blk nightshade ([16]; Rate 250 g/ha, 0 to 100 scale): 90
Plant response rating, Wild mustard [17, 24]: 50
Plant response rating, Wild mustard [17, 25]: 90
Plant response rating, Wild mustard ([17]; Rate 250 g/ha, 0 to 100 scale): 65
Plant response rating, Downy brome ([18]; Rate 62 g/ha): 0
Plant response rating, Downy brome ([18]; Rate 125 g/ha): 0
Plant response rating, Downy brortie [18]: 0
Plant response rating, Kochia ([19]; Rate 62 g/ha, 0 to 100 scale): 20
Plant response rating, Kochia ([19]; Rate 125 g/ha, 0 to 100 scale): 40
Plant response rating, Kochia [19, 23]: 30
Plant response rating, Russian thistle ([20]; Rate 62 g/ha, 0 to 100 scale): 0
Plant response rating, Russian thistle ([20]; Rate 125 g/ha, 0 to 100 scale): 0
Plant response rating, Russian thistle [20, 23]: 0
Plant response rating, Windgrass [21]: 80
Plant response rating, Windgrass [22, 24]: 100
Plant response rating, Windgrass [22, 25]: 100
